Results as given in US20240360153A1 (Regeneron Pharmaceuticals, Inc., priority 2023, published 2024).
pIC50: −log10 of the molar value.

Columns and labels:
[1] = tested on: S6K1 (Thr389) phosphorylation (mTORC1 activity) in FKBP12 knock-out 293T cells; assay: Inhibition of S6K1 (Thr389) phosphorylation in FKBP12 knock-out 293T cells (ELISA); assay type: cell-based, human; details: for inhibition at 10 µM: Homo sapiens, HEK-293T, 10 μM (highest tested concentration); for selectivity for FKBP12 compared with RAD001 (in words): wild-type versus FKBP12 knock-out cells
Excerpt: Example Generation of FKBP 12 knock-out cells. A CRISPR/Cas9 system was used to deliver ribonucleoprotein complexes containing guide RNA sequences that target FKBP12 (ac[…], location 1369062; ccactactcac[…], location 1369181) in HEK293T cells using Lipofectamine CRISPRMAX transfection reagent (Invitrogen CMAX00008). Cell clones were screened by immunoblotting with anti-FKBP-specific antibody (Novus, NB300-508). Single cells that were deficient for FKBP12 protein were selected and cloned.
(§1) Treatment of wild-type (WT) and FKBP12 knock-out 293T cells with RAD001 (everolimus) and test compounds. WT and FKBP12 knock-out 293T cells were cultured in Dulbecco's modified Eagle's medium (Gibco #11971-025) supplemented with 10% fetal bovine serum (Gibco #26140-079). Cells were plated at a density of 15,000 cells per well in poly-D-Lysine coated 96-well plates (Corning, #354461) and were incubated at 37° C., 5% CO2 for 24 hours until they reached ˜80% confluence. Cells were treated with RAD001 or test compounds reconstituted in dimethyl sulfoxide (DMSO) using a 8-11-point dose range, from 0.001 pM to 10 μM. All treatments were performed in duplicates for 2 hours at 37° C. Cell culture media supplemented with blank dimethyl sulfoxide (DMSO) was used as a negative control for all compounds. Phosphorylated amounts of S6K1 (Thr389) were measured using an ELISA kit (Invitrogen 85-86052-11), following the manufacture's protocol.
(§2) S6K1 is an immediate downstream target of mTORC1 and therefore phosphorylation of S6K1 at Thr389 residue is used to measure mTORC1 activity (PMID: 16968213). Amounts of phosphorylated S6K1 (Thr389) were measured in WT and FKBP12 knock-out 293T cells treated with either RAD001 or Compound 44 (FIGS. 1A and 1B), and Compound 45 (FIGS. 1C and 1D).

[2] = In vitro microsomal metabolic stability, CD-1 mouse liver microsomes; assay type: in vitro ADME
Procedure: (§3) Buffers: PBK Buffer: 50 mM potassium phosphate buffer (PPB), pH 7.2, with 3.3 mM Magnesium Chloride.
(§4) TA Intermediate solution: Compound or control (3 μL) diluted from stock solution (10 mM) with 297 μL 90.0% methanol/water. (Conc: 100 μM; 1.0% DMSO, 89.1% MeOH).
(§5) Control cocktail intermediate solution: Each control (3 μL) was diluted with 291 μL 90.0% methanol/water.
(§6) Diluted TA intermediate stock solution and PC control stock were made by transferring 80 μL of 100 μM TA stock solution into new tubes and then adding 720 μL of 1.0% DMSO in 50 mM potassium phosphate buffer (conc. 10 μM; 1.0% DMSO, 8.91% MeOH).
(§7) Preparation of Liver microsomes working solution (1.25×)(final Conc.: 0.5 mg/mL).
(§8) Acetonitrile:methanol (9:1, v/v)(including 200 ng/mL tolbutamide and 200 ng/ml labetalol hydrochloride as internal standards).
(§9) Working solution: Intermediate solution (80 μL) was diluted with 720 μL 1.0% DMSO in 50 mM potassium phosphate buffer (Conc.: 10 μM; 1.0% DMSO, 8.91% MeOH)
(§10) Procedure: Stock solution was added to each of the time point plates. Microsomes solution (360 μL/well), TA/PC (45 μL/well), and NADPH (45 μL/well) min. (Conc: 1.0 μM, 0.10% DMSO, 0.891% MeOH) were added to the incubation plates. To the T60 and NCF60 plate, TA (15 ul/well) and Microsomes (120 ul) were added. To the blank plate, microsome (50 ul/well) with stop solution (150 ul/well) were added. At the end of each time point, 50 ul/well was aliquoted from the incubation plate. The sampling plates were shaken for approximately 10 min. on a shaker and the samples were centrifuged at 4000 rpm for 15 min. Supernatant (120 μL) was transferred for LC/MS/MS.Compounds from Table 3 were incubated at 37° C. with liver microsomes (pooled from multiple donors) at 1 μM in the presence of a NADPH regenerating system at 0.5 mg/ml microsomal protein. Positive controls included testosterone (3A4 substrate), propafenone (2D6) and diclofenac (2C9), which were incubated with microsomes in the presence of an NADPH regenerating system. At time points (0, 5, 10, 20, 30 and 60 minutes), samples were removed and immediately mixed with cold acetonitrile containing the internal standard (IS). Test compounds incubated with microsomes without the NADPH regenerating system for 60 min are also included. A single point for each test condition (n=1) was obtained, and samples were analyzed by LC/MS/MS. Disappearance of the test compound was assessed based on peak area ratios of analyte/IS (no standard curve).

[3] = tested on: S6K1 (Thr389) phosphorylation (mTORC1 activity) in wild-type (WT) 293T cells; assay: Inhibition of S6K1 (Thr389) phosphorylation in wild-type 293T cells (ELISA); assay type: cell-based, human; details: for pIC50: Homo sapiens, HEK-293T, 2 h, wild-type 293T cells, 2 hours treatment; for fold lower potency compared with RAD001 (by IC50) / extent of inhibition of S6K1 (Thr389) phosphorylation: wild-type cells; for extent of inhibition of S6K1 (Thr389) phosphorylation: with increasing concentrations
Procedure: as §1, §2

[4] = In vitro microsomal metabolic stability, human liver microsomes; assay type: in vitro ADME
Procedure: as §3, §4, §5, §6, §7, §8, §9, §10

[5] = CD-1, mouse, mouse liver microsomes, pH 7.2
[6] = human, human liver microsomes, pH 7.2

| Compound | inhibition of S6K1 (Thr389) phosphorylation in the absence of FKBP12 (in words) ([1]; FKBP12 knock-out cells) | fold less potent compared with RAD001 ([1]; FKBP12 knock-out cells, at similar level of inhibition) | inhibition at 10 µM ([1]; FKBP12 knock-out cells) | selectivity for FKBP12 compared with RAD001 (in words) [1] | CLint scaled at 1 µM [2, 5] | microsomal CLint at 1 µM [2, 5] | half-life at 1 µM ([2]; CD-1, pH 7.2, Mouse liver microsomes, 1 μM, 0.5 mg/ml protein, NADPH) | Remaining (T = 60 min) ([2]; Mouse liver microsomes, with NADPH, 60 min) | Remaining (T = NCF60 min) ([2]; Mouse liver microsomes, without NADPH regenerating system, 60 min) | pIC50 [3] | fold lower potency compared with RAD001 (by IC50) [3] | extent of inhibition of S6K1 (Thr389) phosphorylation [3] | Remaining (T = 60 min) ([4]; Human liver microsomes, with NADPH, 60 min) | Remaining (T = NCF60 min) ([4]; Human liver microsomes, without NADPH regenerating system, 60 min) | CLint scaled at 1 µM [4, 6] | microsomal CLint at 1 µM [4, 6] | half-life at 1 µM ([4]; pH 7.2, Human liver microsomes, 1 μM, 0.5 mg/ml protein, NADPH) |
| --- | --- | --- | --- | --- | --- | --- | --- | --- | --- | --- | --- | --- | --- | --- | --- | --- | --- |
| COc1cccc(NC2C[C@@H]3CC[C@@H](C)[C@@](O)(O3)C(=O)C(=O)N3CCCCC3C(=O)O[C@H]([C@H](C)C[C@@H]3CC[C@@H](O)[C@H](OC)C3)CC[C@H](C)/C=C(\C)[C@@H](O)[C@@H](OC)C(=O)[C@H](C)C[C@H](C)/C=C/C=C/C=C/2C)c1 (stereo partly drawn) [Compound 44, (3S,6S,7E,9R,10R,12R,14S,15E,17E,19E,23S,26R,27R,34aS)-9,27-dihydroxy-3-((R)-1-((1S,3R,4R)-4-hydroxy-3-methoxycyclohexyl)propan-2-yl)-10-methoxy-21-((3-methoxyphenyl)amino)-6,8,12,14,20,26-hexamethyl-5,6,9,10,12,13,14,21,22,23,24,25,26,27,32,33,34,34a-octadecahydro-3H-23,27-epoxypyrido[2,1-c][1]oxa[4]azacyclohentriacontine-1,11,28,29(4H,31H)-tetraone] | did not inhibit S6K1 phosphorylation at any tested concentration lower than 10 μM | ~100 fold | ~30% | relatively more selective for FKBP12 compared to RAD001 | 162 mL/min/kg | 41 µL/min/mg | 33.8 min | 31% | 96% | 7.96 | ~17 fold | completely inhibit | 7.50% | 99% | 71.7 mL/min/kg | 79.6 µL/min/mg | 17.4 min |
| CO[C@@H]1C[C@H](C[C@@H](C)[C@@H]2CC[C@H](C)/C=C(\C)[C@@H](O)[C@@H](OC)C(=O)[C@H](C)C[C@H](C)/C=C/C=C/C=C(\C)C(Nc3cccc(C#N)c3)C[C@@H]3CC[C@@H](C)[C@@](O)(O3)C(=O)C(=O)N3CCCCC3C(=O)O2)CC[C@H]1O (stereo partly drawn) [Compound 57, 3-(((3S,6S,7E,9R,10R,12R,14S,15E,17E,19E,23S,26R,27R,34aS)-9,27-dihydroxy-3-((R)-1-((1S,3R,4R)-4-hydroxy-3-methoxycyclohexyl)propan-2-yl)-10-methoxy-6,8,12,14,20,26-hexamethyl-1,11,28,29-tetraoxo-1,4,5,6,9,10,11,12,13,14,21,22,23,24,25,26,27,28,29,31,32,33,34,34a-tetracosahydro-3H-23,27-epoxypyrido[2,1-c][1]oxa[4]azacyclohentriacontin-21-yl)amino)benzonitrile] | inhibited the mTORC1 signaling in a dose dependent manner |  |  | relatively not FKBP12 selective |  |  |  |  |  | 8.43 | 44 fold | near complete inhibition |  |  |  |  |  |
| COc1ccc(NC2C[C@@H]3CC[C@@H](C)[C@@](O)(O3)C(=O)C(=O)N3CCCCC3C(=O)O[C@H]([C@H](C)C[C@@H]3CC[C@@H](O)[C@H](OC)C3)CC[C@H](C)/C=C(\C)[C@@H](O)[C@@H](OC)C(=O)[C@H](C)C[C@H](C)/C=C/C=C/C=C/2C)cc1 (stereo partly drawn) [Compound 47, (3S,6S,7E,9R,10R,12R,14S,15E,17E,19E,23S,26R,27R,34aS)-9,27-dihydroxy-3-((R)-1-((1S,3R,4R)-4-hydroxy-3-methoxycyclohexyl)propan-2-yl)-10-methoxy-21-((4-methoxyphenyl)amino)-6,8,12,14,20,26-hexamethyl-5,6,9,10,12,13,14,21,22,23,24,25,26,27,32,33,34,34a-octadecahydro-3H-23,27-epoxypyrido[2,1-c][1]oxa[4]azacyclohentriacontine-1,11,28,29(4H,31H)-tetraone] | did not inhibit S6K1 (Thr389)phosphorylation at any tested concentrations |  |  | relatively more selective to FKBP12 compared with RAD001 |  |  |  |  |  | 7.16 | 219 fold | near complete inhibition |  |  |  |  |  |
| COC1C(=O)[C@H](C)C[C@H](C)/C=C/C=C/C=C(\C)C(NS(=O)(=O)c2cccc(C)c2)C[C@@H]2CC[C@@H](C)[C@@](O)(O2)C(=O)C(=O)N2CCCC[C@H]2C(=O)OC([C@H](C)CC2CC[C@@H](O)C(OC)C2)CC[C@H](C)/C=C(\C)C1O (stereo partly drawn) [Compound 72, N-((3S,6S,7E,9R,10R,12R,14S,15E, 17E,19E,23S,26R,27R,34aS)-9,27-dihydroxy-3-((R)-1-((1S,3R,4R)-4-hydroxy-3-methoxycyclohexyl)propan-2-yl)-10-methoxy-6,8,12,14,20,26-hexamethyl-1,11,28,29-tetraoxo-1,4,5,6,9,10,11,12,13,14,21,22,23,24,25,26,27,28,29,31,32,33,34,34a-tetracosahydro-3H-23,27-epoxypyrido[2,1-c][1]oxa[4]azacyclohentriacontin-21-yl)-3-methylbenzenesulfonamide] | inhibited S6K1 (Thr389)phosphorylation in a dose dependent manner |  | 40% |  |  |  |  |  |  | 9.04 | 5.2 fold | near complete inhibition |  |  |  |  |  |
